Reference: patent publication EP4613269A1, “RIFAXIMIN FOR USE IN TREATING SARCOPENIA IN PATIENTS WITH LIVER DISEASE” (priority 2024, dated 2025)

Assays:
[1] = Retrospective cohort study: skeletal muscle area (SMA) at L3 from serial abdominal CT scans; format: in vivo, human; settings: for Follow-up skeletal muscle area: Median (IQR) at second CT scan, rifaximin N = 63 (with lactulose), lactulose alone N = 79; for median change in SMA: between first and second abdominal CT scan (3-9 months apart), patients with cirrhosis and HE, rifaximin 550 mg twice daily orally with lactulose vs lactulose monotherapy
Excerpt: (§1) This study is a single-centre retrospective cohort study of patients treated with lactulose or rifaximin with lactulose, under the care of the liver transplant service in Melbourne, Australia, between 2009 and 2022. The primary outcome measure was a change in muscle mass over time between the rifaximin versus non-rifaximin treated cohort. Secondary outcomes included. Clostridium difficile infection and mortality.
(§2) All adult patients (age >18 years) with cirrhosis and documented clinically apparent hepatic encephalopathy (HE) known to the Victorian liver transplant service were considered for analysis. Inclusion criteria required patients to have had serial abdominal CT scans at least 3 months and at most 9 months apart during their time on the liver transplant waitlist to allow for comparison of muscle mass over time. Rifaximin became widely available as a treatment of HE on the Pharmaceutical Benefits Scheme in Australia in January 2014. Therefore, patients on lactulose monotherapy (January 2009 to December 2013) were compared to those receiving rifaximin with lactulose (January 2014 to July 2022). Patients were orally administered 550 mg of rifaximin (alpha) twice daily. Lactulose treatment for HE was under standard conditions, i.e. lactulose administration in syrup form at a dose of 15 to 30 mL two to four times a day to aim for two semisoft stools per day. Patients otherwise received standard of care management of cirrhosis including nutritional advice from an experienced liver dietitian.
Muscle mass data was calculated from CT scans performed at two time-points in the patient journey to determine progress and change of outcomes. The first time-point for data collection, including for demographics and blood parameters, was time of first CT. The second time-point for data collection was collected between three to nine months following the first time point when the follow up CT was performed.
SMA was measured using the cross-sectional area of the abdominal muscles at the third lumbar vertebrae (L3) using CoreSlicer (^©2018), a web-based program for accurate measurement of body composition, verified for this purpose (Mullie & Afilalo "CoreSlicer: a web toolkit for analytic morphomics" BMC Med. Imaging (2019), 19(1): 15).
Statistical analysis was performed using R version 4.1.1. Subgroups were compared by χ^2 test for categorical variables and Student's t-test or Wilcoxon rank sum test for parametric and non-parametric continuous variables, respectively. Linear regression models (analysis of covariance) were used to assess the impact of clinical variables on muscle endpoints. […]
Averages were expressed as mean ± standard deviation for normally distributed variables, and as medians ± IQR for non-normally distributed variables.

[2] = Retrospective cohort study: clinical outcomes (transplant outcome, mortality, Clostridium difficile infection); format: in vivo, human; settings: for Transplant outcome: Died on list: died awaiting transplantation; for episodes of Clostridium difficile infection: during study follow-up; for Transplant outcome: Delisted / Transplant outcome: Rejected / Transplant outcome: Transplanted: liver transplant waitlist patients with cirrhosis and HE; for median time to death from listing: patients who died awaiting transplant; for Median time-to-transplant: transplanted patients
Excerpt: as §1, §2
Included data comprised baseline demographics (age, gender, aetiology of liver disease, body mass index (BMI)); disease assessment at workup (Sodium Model of End-Stage Liver Disease (NaMELD)), Child-Pugh-Turcotte (CTP) score; sarcopenia assessment (skeletal muscle area (SMA, cm^2)) from single slice CT scan, sepsis (hospitalisation data for infective complications, episodes of spontaneous bacterial peritonitis); rifaximin complications (Clostridium difficile infections); and mortality and transplantation outcome data.
Patients were followed up until: end outcomes occurred; delisting from service; rejected prior to formal transplant workup; death prior to transplant; or liver transplantation.

With `OC[C@H]1O[C@@H](O[C@@H]2[C@@H](CO)OC(O)(CO)[C@H]2O)[C@H](O)[C@@H](O)[C@H]1O` (mixture of isomers) [Lactulose alone, Lactulose] the “Follow-up skeletal muscle area” value [1] was 159 (137, 174) cm^2, the “median change in SMA” value [1] was -6.9 cm^2 and the “Transplant outcome: Died on list” value [2] was 5 (6.5%) n (%). The “Transplant outcome: Died on list” value ([2]; listed as lactulose) was 5 (6.5 %) n (%), the “episodes of Clostridium difficile infection” value [2] was “none” and the “Transplant outcome: Delisted” value [2] was 15 (19%) n (%). The “Transplant outcome: Rejected” value [2] was 0 (0%) n (%), the “Transplant outcome: Transplanted” value [2] was 57 (74%) n (%) and the “median time to death from listing” value [2] was 282 days. For the same compound, the Median time-to-transplant [2] was 312.5 days.

With `CO[C@H]1/C=C/O[C@@]2(C)Oc3c(C)c(O)c4c(O)c(c5c(nc6cc(C)ccn65)c4c3C2=O)NC(=O)/C(C)=C\C=C\[C@H](C)[C@H](O)[C@@H](C)[C@@H](O)[C@@H](C)[C@H](OC(C)=O)[C@@H]1C` [Rifaximin, 4-deoxy-4'-methylpyrido[1',2'-1,2]imidazo-[5,4-c] rifamycin SV] the “Follow-up skeletal muscle area” value [1] was 162 (134, 190) cm^2, the “median change in SMA” value [1] was “+0.74 cm^2” and the “Transplant outcome: Died on list” value [2] was 2 (3.4%) n (%). For the same compound, the “episodes of Clostridium difficile infection” value [2] was “one”, the “Transplant outcome: Delisted” value [2] was 4 (6.9%) n (%) and the “Transplant outcome: Rejected” value [2] was 1 (1.7%) n (%). The “Transplant outcome: Transplanted” value [2] was 51 (88%) n (%), the “median time to death from listing” value [2] was 265.5 days and the Median time-to-transplant [2] was 353 days.
